Laboratory results: article PMC13163009, “Pyrimethamine Restores KEAP1-Mediated Degradation of Select NRF2 Mutants in Esophageal Squamous Cell Carcinoma” (Cancers, 2026)

Legend:
[1] = biological target: T1, KEAP1 (Kelch-like ECH-associated protein 1) (Homo sapiens, UniProt Q14145); test: ITC with recombinant full-length KEAP1; SPR showed PYR modestly increases DLG(W24C) peptide binding to the Kelch domain
T1 construct: human recombinant KEAP1 (Gln2-Cys624)

[2] = biological target: T2, Kelch fragment (Ala321-Glu611 of human KEAP1 protein) (human, UniProt Q14145 321-611, biotinylated (site not stated)); test: SPR; Biacore S200; biotinylated Kelch immobilised on a streptavidin chip; DLG peptides as analytes, 2-fold dilutions from 200 uM to 0.39 uM; 30 uL/min, 90 s association, 180 s dissociation; analysis at 15 °C; also run with PYR mixed into the analyte with the DLG peptides; conditions: both partners purified
T2 construct: Kelch-like ECH-associated protein 1 (KEAP1), human, Kelch fragment Ala321-Glu611; printed MW 34,038.03 Da; The printed mass (34,038.03 Da) looks larger than residues 321-611 alone, so extra residues or a tag for biotinylation may be present; also called Kelch domain; Kelch domain fragment of KEAP1; source: expressed in vitro, purified, biotinylated, validated by LC-MS
T2 sequence (Q14145 321-611): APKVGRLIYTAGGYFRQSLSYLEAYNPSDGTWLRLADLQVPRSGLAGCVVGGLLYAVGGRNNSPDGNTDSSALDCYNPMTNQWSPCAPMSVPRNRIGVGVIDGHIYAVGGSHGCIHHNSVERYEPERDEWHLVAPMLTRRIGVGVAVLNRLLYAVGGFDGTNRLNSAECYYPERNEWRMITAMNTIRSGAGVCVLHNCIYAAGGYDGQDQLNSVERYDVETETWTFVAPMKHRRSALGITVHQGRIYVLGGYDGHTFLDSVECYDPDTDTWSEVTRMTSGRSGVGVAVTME

T1 sequence (Q14145 2-624): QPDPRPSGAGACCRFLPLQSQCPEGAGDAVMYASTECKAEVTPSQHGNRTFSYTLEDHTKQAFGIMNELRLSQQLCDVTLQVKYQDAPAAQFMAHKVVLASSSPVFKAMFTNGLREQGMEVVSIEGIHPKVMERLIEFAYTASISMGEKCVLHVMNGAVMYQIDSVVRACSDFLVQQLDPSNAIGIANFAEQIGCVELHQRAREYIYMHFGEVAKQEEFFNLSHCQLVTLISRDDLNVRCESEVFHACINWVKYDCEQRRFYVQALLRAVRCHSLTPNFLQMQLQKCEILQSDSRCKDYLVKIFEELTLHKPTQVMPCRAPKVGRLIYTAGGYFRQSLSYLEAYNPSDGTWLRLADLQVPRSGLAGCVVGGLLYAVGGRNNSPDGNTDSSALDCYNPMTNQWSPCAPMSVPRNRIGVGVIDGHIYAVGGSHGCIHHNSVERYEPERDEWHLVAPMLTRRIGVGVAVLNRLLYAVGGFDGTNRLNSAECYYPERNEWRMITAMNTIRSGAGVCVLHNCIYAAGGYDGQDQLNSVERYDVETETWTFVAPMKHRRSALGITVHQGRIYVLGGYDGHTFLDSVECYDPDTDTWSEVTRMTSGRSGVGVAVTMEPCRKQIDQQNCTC

Molecule | Kd [1] [µM] | binding result [2]
CCc1nc(N)nc(N)c1-c1ccc(Cl)cc1 [PYR, pyrimethamine] | 13 | –
MDLIDILWRQDIDLGVSREVFDFS (nuclear factor erythroid 2-related factor 2 (NRF2, NFE2L2), residues 17-40 with the DLG motif; also called DLG-containing NRF2 peptide; source: synthetic peptide) [DLG^WT peptide (NRF2 residues 17-40)] | – | binds
